{"source": "paper PMC9014845", "about": "(Clinical cancer research : an official journal of the …, 2019)", "system": "monkeys", "test": "4-week repeated-dose toxicity study", "format": "in vivo, monkey"}
{"substance": "Debio 1347", "values": [{"measurement": "Highest non-severely toxic dose", "value": 4, "unit": "mg/kg/day"}]}
